Experimental data published in patent US8765748B2, “Indazolyl, benzimidazolyl, benzotriazolyl substituted indolinone derivatives as kinase inhibitors useful in the treatment of cancer” (University Health Network, priority 2007, dated 2014).
pIC50: −log10 of the molar value.

How the values were obtained:
Format in all cases: biochemical
human PLK4 = biological target: T1, human PLK4 (Homo sapiens, UniProt O00444); test: PLK4 Inhibition Assay (indirect ELISA); details: 15 μM ATP, 4 nM GST-PLK4; read-out: PLK4 IC50 Ranges
T1 construct: amino terminal GST fusion of residues 1-391 of human PLK4; made in house; host or cells: E. coli
T1 sequence (O00444 1-391): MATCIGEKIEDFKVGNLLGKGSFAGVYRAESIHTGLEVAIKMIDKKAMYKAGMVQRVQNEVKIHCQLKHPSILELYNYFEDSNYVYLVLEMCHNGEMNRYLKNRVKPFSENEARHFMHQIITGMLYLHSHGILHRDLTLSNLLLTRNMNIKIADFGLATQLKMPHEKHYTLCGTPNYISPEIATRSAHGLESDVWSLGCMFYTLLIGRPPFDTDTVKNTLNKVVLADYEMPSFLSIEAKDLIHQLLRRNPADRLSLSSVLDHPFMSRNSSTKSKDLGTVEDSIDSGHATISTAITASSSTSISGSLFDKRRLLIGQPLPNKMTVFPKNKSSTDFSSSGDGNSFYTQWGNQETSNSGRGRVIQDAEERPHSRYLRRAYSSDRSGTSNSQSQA
Protocol: The protein was purified from clarified cell extracts after induction at 15° C. overnight using glutathione sepharose, gel permeation chromatography, and ion exchange (Resource Q). The resulting protein was dephosphorylated with lambda phosphatase (NEB cat #P0753), and resolved from the phosphatase using gluthione sepharose. The dephosphorylated GST-PLK4 was stored in aliquots at −80° C. until use. PLK4 activity was measured using an indirect ELISA detection system. […] Compounds were pre-incubated in the presence of enzyme for 15 minutes prior to addition of ATP and the activity remaining quantified using the above described activity assay. […] The IC50 value was determined using a non-linear 4 point logistic curve fit (XLfit4, IDBS) with the formula; (A+(B/(1+((x/C)^D)))), where A=background value, B=range, C=inflection point, D=curve fit parameter.

PLK1 = biological target: T2, PLK1 (Homo sapiens, UniProt P53350); test: PLK1 Inhibition Assay (Z-Lyte); details: for inhibition at 10 µM: 10 μM compound, read-out: PLK1 relative inhibition percentage at a dose of 10 μM
T2 construct: purchased Invitrogen PV3501
T2 sequence (P53350 whole entry): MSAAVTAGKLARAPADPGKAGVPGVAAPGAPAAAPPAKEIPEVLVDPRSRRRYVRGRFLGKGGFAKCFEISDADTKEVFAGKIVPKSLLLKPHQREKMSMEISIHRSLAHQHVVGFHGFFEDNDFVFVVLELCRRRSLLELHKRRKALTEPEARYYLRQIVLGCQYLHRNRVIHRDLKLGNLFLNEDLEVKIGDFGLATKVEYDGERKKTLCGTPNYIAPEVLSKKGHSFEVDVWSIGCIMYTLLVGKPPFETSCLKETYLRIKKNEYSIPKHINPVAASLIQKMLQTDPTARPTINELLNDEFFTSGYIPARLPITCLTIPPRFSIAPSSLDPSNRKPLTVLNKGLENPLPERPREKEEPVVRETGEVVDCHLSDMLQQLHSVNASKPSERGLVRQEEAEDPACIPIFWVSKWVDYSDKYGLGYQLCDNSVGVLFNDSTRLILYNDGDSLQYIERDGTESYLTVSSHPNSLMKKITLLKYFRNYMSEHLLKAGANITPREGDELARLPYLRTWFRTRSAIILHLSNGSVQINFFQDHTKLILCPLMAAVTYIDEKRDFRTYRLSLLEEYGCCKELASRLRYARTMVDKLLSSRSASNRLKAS
Protocol: PLK1 inhibition was determined using the Z-Lyte assay kit from Invitrogen (cat #PV3802). […] The % inhibition values were determined according to the manufacturer's directions and IC50 values were obtained using a non-linear 4 point logistic curve fit (XLfit4, IDBS)

PLK2 = biological target: T3, PLK2 (Homo sapiens, UniProt Q9NYY3); test: PLK2 Inhibition Assay (Z-Lyte); details: 10 μM compound; read-out: PLK2 relative inhibition percentage at a dose of 10 μM
T3 construct: purchased Invitrogen PV4204
T3 sequence (Q9NYY3 whole entry): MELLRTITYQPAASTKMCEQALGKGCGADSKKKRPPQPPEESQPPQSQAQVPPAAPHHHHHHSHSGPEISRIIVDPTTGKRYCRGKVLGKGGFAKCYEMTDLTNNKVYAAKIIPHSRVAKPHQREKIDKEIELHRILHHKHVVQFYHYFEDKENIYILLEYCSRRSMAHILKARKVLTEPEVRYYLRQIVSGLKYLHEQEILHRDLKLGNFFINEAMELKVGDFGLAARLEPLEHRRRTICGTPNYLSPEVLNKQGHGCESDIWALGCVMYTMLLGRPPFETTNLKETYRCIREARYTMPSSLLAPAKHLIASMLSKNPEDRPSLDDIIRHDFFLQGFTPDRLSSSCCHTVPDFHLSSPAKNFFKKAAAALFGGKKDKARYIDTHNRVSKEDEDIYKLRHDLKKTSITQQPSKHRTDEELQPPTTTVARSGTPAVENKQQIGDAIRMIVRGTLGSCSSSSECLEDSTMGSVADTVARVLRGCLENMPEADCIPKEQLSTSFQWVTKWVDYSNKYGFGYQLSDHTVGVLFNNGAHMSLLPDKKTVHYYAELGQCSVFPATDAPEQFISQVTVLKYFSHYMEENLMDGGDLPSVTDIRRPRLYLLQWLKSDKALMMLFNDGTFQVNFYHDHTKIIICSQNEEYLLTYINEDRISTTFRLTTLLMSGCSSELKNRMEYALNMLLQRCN
Protocol: (§1) PLK2 inhibition was determined using the Z-Lyte assay kit from Invitrogen (cat #PV3802). The assay was performed using the recommended manufacturer's instructions with 60 μM ATP and 133 nM PLK2 (Invitrogen cat #PV4204). The % inhibition values were determined according to the manufacturer's directions and IC50 values were obtained using a non-linear 4 point logistic curve fit (XLfit4, IDBS)

Aurora A = biological target: T4, Aurora A (Homo sapiens, UniProt O14965); test: Aurora A Inhibition Assay (Z-Lyte); details: for inhibition at 10 µM: 10 μM compound, read-out: Aurora A relative inhibition percentage at a dose of 10 μM; for pIC50: 20 μM ATP, 12 nM Aurora A, read-out: Aurora A IC50 Ranges; for inhibition at 1 µM: 1 μM compound, read-out: Aurora A relative inhibition percentage at a dose of 1 μM
T4 construct: purchased Invitrogen PV3612
T4 sequence (O14965 1-403): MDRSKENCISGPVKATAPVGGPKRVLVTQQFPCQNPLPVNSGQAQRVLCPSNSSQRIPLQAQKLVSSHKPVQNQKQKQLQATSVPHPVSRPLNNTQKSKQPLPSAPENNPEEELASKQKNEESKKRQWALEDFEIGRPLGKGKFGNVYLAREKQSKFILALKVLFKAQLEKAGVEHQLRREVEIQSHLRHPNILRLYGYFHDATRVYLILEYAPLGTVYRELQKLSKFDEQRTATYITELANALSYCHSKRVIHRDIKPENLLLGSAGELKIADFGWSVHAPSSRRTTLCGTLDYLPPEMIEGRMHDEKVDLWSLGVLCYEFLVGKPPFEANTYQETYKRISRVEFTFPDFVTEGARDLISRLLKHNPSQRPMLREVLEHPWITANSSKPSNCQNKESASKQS
Protocol: as §1, with “Aurora A” for “PLK2”, “Invitrogen.” for “Invitrogen (cat #PV3802).”, “20” for “60”, “12” for “133”, “#PV3612).” for “#PV4204).”

Aurora B = biological target: T5, Aurora B (Homo sapiens, UniProt Q96GD4); test: Aurora B Inhibition Assay (Z-Lyte); details: for pIC50: 128 μM ATP, 28 nM Aurora B, read-out: Aurora B IC50 Ranges
T5 construct: purchased Invitrogen PV3970
T5 sequence (Q96GD4 whole entry): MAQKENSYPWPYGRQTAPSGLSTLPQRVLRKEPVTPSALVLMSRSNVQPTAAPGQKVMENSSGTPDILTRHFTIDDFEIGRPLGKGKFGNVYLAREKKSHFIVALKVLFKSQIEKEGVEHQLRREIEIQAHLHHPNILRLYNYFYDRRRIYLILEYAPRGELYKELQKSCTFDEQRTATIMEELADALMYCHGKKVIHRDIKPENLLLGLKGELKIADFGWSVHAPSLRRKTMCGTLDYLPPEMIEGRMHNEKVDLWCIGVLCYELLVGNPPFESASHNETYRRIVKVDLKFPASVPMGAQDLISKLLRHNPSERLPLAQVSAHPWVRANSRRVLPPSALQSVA
Protocol: as §1, with “Aurora B” for “PLK2”, “Invitrogen.” for “Invitrogen (cat #PV3802).”, “128” for “60”, “28” for “133”, “#PV3970).” for “#PV4204).”

SMILES | pIC50 (human PLK4) | pIC50 (PLK1; 25 μM ATP, 8 nM PLK1, read-out: PLK1 IC50 Ranges) | inhibition at 10 µM (PLK2) | inhibition at 10 µM (Aurora A) | pIC50 (Aurora B) | inhibition at 10 µM (PLK1) | pIC50 (Aurora A) | inhibition at 10 µM (Aurora B; 10 μM compound, read-out: Aurora B relative inhibition percentage at a dose of 10 μM) | inhibition at 1 µM (Aurora A)
O=C1Nc2ccc(O)cc2/C1=C\c1ccc2cn[nH]c2c1 [Example A123, (E)-3-((1H-indazol-6-yl)methylene)-5-hydroxyindolin-2-one] | > 5.30 |  |  |  | > 5.30 |  | > 5.30 |  | 
O=C1Nc2ncc(Br)cc2C1=Cc1ccc2c(/C=C/c3cccnc3)n[nH]c2c1 (mixture of isomers) [Example A140, (E and Z)-5-bromo-3-((3-((E)-2-(pyridin-3-yl)vinyl)-1H-indazol-6-yl)methylene)-1H-pyrrolo[2,3-b]pyridin-2(3H)-one] | > 5.30 |  |  |  | > 5.30 |  | > 5.30 |  | 
COc1ccc2c(c1)/C(=C\c1ccc3c(/C=C/C(=O)N(C)CCN(C)C)n[nH]c3c1)C(=O)N2 [Example A126, (E)-N-(2-(dimethylamino)ethyl)-3-(6-((E)-(5-methoxy-2-oxoindolin-3-ylidene)methyl)-1H-indazol-3-yl)-N-methylacrylamide 2,2,2-trifluoroacetate] | > 5.30 |  |  | > 50% | > 5.30 |  |  |  | 
COC(=O)c1ccc(/C=C/c2n[nH]c3cc(/C=C4\C(=O)Nc5ccccc54)ccc23)cc1 [Example A141, methyl 4-((E)-2-(6-((Z)-(2-oxoindolin-3-ylidene)methyl)-1H-indazol-3-yl)vinyl)benzoate] | > 5.30 |  |  |  | > 5.30 |  |  |  | > 50%
COc1ccc2c(c1)/C(=C\c1ccc3c(/C=C/c4ccc(C(=O)O)cc4)n[nH]c3c1)C(=O)N2 [Example A145, 4-((E)-2-(6-((E)-(5-methoxy-2-oxoindolin-3-ylidene)methyl)-1H-indazol-3-yl)vinyl)benzoic acid] | > 5.30 |  |  |  | > 5.30 |  | > 5.30 |  | 
O=C1Nc2ccc(Cl)nc2C1=Cc1ccc2c(/C=C/c3ccncc3)n[nH]c2c1 (mixture of isomers) [Example A137, (E and Z)-5-chloro-3-((3-((E)-2-(pyridin-4-yl)vinyl)-1H-indazol-6-yl)methylene)-1H-pyrrolo[3,2-b]pyridin-2(3H)-one] | > 5.30 |  |  |  | > 5.30 |  | > 5.30 |  | 
COC(=O)c1ccc(/C=C/c2n[nH]c3cc(C=C4C(=O)Nc5ccc(OC)cc54)ccc23)cc1 (mixture of isomers) [Example A142, methyl 4-((E)-2-(6-((E and Z)-(5-methoxy-2-oxoindolin-3-ylidene)methyl)-1H-indazol-3-yl)vinyl)benzoate] | > 5.30 |  |  |  | > 5.30 |  |  |  | > 50%
O=C1Nc2ccccc2/C1=C\c1ccc2c(/C=C/c3ccc(C(=O)O)cc3)n[nH]c2c1 [Example A144, 4-((E)-2-(6-((E)-(2-oxoindolin-3-ylidene)methyl)-1H-indazol-3-yl)vinyl)benzoic acid] | > 5.30 |  |  |  | > 5.30 |  | > 5.30 |  | 
O=C(O)/C=C/c1n[nH]c2cc(C=C3C(=O)Nc4ncccc43)ccc12 (mixture of isomers) [Example A71, (E)-3-(6-((E & Z)-(2-oxo-1H-pyrrolo[2,3-b]pyridin-3(2H)-ylidene)-methyl)-1H-indazol-3-yl)acrylic acid] | > 5.30 |  |  | > 50% | > 5.30 |  |  |  | 
COc1ccc2c(c1)/C(=C\c1ccc3c(-c4ccc(N(C)C)nc4)n[nH]c3c1)C(=O)N2 [Example A116, (E)-3-((3-(6-(dimethylamino)pyridin-3-yl)-1H-indazol-6-yl)methyl-ene)-5-methoxyindolin-2-one] |  |  | < 50% |  |  | < 50% |  |  | 
O=C1Nc2ccc(O)cc2/C1=C\c1ccc2c(/C=C/c3ccncc3)n[nH]c2c1 [Example A124, (E)-5-hydroxy-3-((3-((E)-2-(pyridin-4-yl)vinyl)-1H-indazol-6-yl)methylene)indolin-2-one 2,2,2-trifluoroacetate] | > 5.30 |  |  |  | > 5.30 |  | > 5.30 |  | 

Continued, values first:

pIC50 (human PLK4) | pIC50 (PLK1; 25 μM ATP, 8 nM PLK1, read-out: PLK1 IC50 Ranges) | inhibition at 10 µM (PLK2) | inhibition at 10 µM (Aurora A) | pIC50 (Aurora B) | inhibition at 10 µM (PLK1) | pIC50 (Aurora A) | inhibition at 10 µM (Aurora B; 10 μM compound, read-out: Aurora B relative inhibition percentage at a dose of 10 μM) | inhibition at 1 µM (Aurora A) | SMILES
> 5.30 | 4.30 to 5.30 | > 50% | < 50% | 4.30 to 5.30 |  |  |  |  | O=C1Nc2ccc(Br)cc2/C1=C\c1ccc2[nH]nnc2c1 [Example A3, (E)-3-((1H-benzo[d][1,2,3]triazol-5-yl)methylene)-5-bromoindolin-2-one]
> 5.30 |  | < 50% |  | > 5.30 | < 50% | > 5.30 |  |  | COc1ccc2c(c1)C(=Cc1ccc3c(/C=C/c4cccnc4)n[nH]c3c1)C(=O)N2 (mixture of isomers) [Example A115, (E and Z)-5-methoxy-3-((3-((E)-2-(pyridin-3-yl)vinyl)-1H-indazol-6-yl)methylene)indolin-2-one]
> 5.30 |  | > 50% | > 50% |  | > 50% |  | > 50% |  | O=C1Nc2ncc(Br)cc2C1=Cc1ccc2cn[nH]c2c1 (racemic) [Example A69, (E and Z)-3-((1H-indazol-6-yl)methylene)-5-bromo-1H-pyrrolo[2,3-b]pyridin-2(3H)-one]
> 5.30 |  | < 50% |  |  | < 50% |  |  |  | COCn1nc(/C=C/c2ccncc2)c2ccc(/C=C3/C(=O)Nc4ccc(Br)cc43)cc21 [Example A63, (E)-5-bromo-3-((1-(methoxymethyl)-3-((E)-2-(pyridin-4-yl)vinyl)-1H-indazol-6-yl)methylene)indolin-2-one]
> 5.30 |  |  |  | > 5.30 |  |  |  | > 50% | COC(=O)c1ccc(/C=C/c2n[nH]c3cc(C=C4C(=O)Nc5ncccc54)ccc23)cc1 (mixture of isomers) [Example A143, methyl 4-((E)-2-(6-((E and Z)-(2-oxo-1H-pyrrolo[2,3-b]pyridin-3(2H)-ylidene)methyl)-1H-indazol-3-yl)vinyl)benzoate]
> 5.30 |  | > 50% |  | > 5.30 | < 50% |  |  |  | O=C1Nc2ccccc2/C1=C\c1cc(Br)c2cn[nH]c2c1 [Example A53a, (E)-3-((4-bromo-1H-indazol-6-yl)methylene)indolin-2-one]
> 5.30 |  |  |  | > 5.30 |  | > 5.30 |  |  | O=C1Nc2ncccc2C1=Cc1ccc2c(/C=C/c3ccc(C(=O)O)cc3)n[nH]c2c1 (mixture of isomers) [Example A146, 4-((E)-2-(6-((E/Z)-(2-oxo-1H-pyrrolo[2,3-b]pyridin-3(2H)-ylidene)methyl)-1H-indazol-3-yl)vinyl)benzoic acid]
> 5.30 |  |  |  | > 5.30 |  | 4.30 to 5.30 |  |  | COc1ccc2c(c1)/C(=C\c1ccc3c(-c4cnc(N5CCN(C)CC5)nc4)n[nH]c3c1)C(=O)N2 [Example A151, (E)-5-methoxy-3-((3-(2-(4-methylpiperazin-1-yl)pyrimidin-5-yl)-1H-indazol-6-yl)methylene)indolin-2-one]
